Values belong to the compound of their own block, whether it stands above or below them.
Target: T1, HIF-PH2 (EGLN1) (Homo sapiens, UniProt Q9GZT9)
T1 construct: made in house; host or cells: insect Hi5 cells
Assay: HIF-PH assay (14CO2 capture, peptide-dependent turnover)
Assay type: biochemical
Conditions: for inhibition at 200 µM: Concentration 200 μM; for inhibition at 67 µM: Concentration 67 μM; for inhibition at 50 µM: Concentration 50 μM; for inhibition at 125 µM: Concentration 125 μM
From the text: Ketoglutaric acid α-[1-^14C]-sodium salt, alpha-ketoglutaric acid sodium salt, and HPLC purified peptide may be obtained from commercial sources, e.g., Perkin-Elmer (Wellesley Mass.), Sigma-Aldrich, and SynPep Corp. (Dublin Calif.), respectively. Peptides for use in the assay may be fragments of HIFα as described above or as disclosed in International Publication WO 2005/118836, incorporated by reference herein. HIF-PH, e.g., HIF-PH2 (EGLN1), can be expressed in, e.g., insect Hi5 cells, and partially purified, e.g., through a SP ion exchange chromatography column. Enzyme activity is determined by capturing ^14CO2 using an assay described by Kivirikko and Myllyla (1982, Methods Enzymol. 82:245-304). Assay reactions contain 50 mM HEPES (pH 7.4), 100 μM α-ketoglutaric acid sodium salt, 0.30 μCi/mL ketoglutaric acid α-[1-^14C]-sodium salt, 40 μM FeSO4, 1 mM ascorbate, 1541.8 units/mL Catalase, with or without 50 μM peptide substrate and various concentrations of compound of the invention. Reactions are initiated by addition of HIF-PH enzyme.
The peptide-dependent percent turnover is calculated by subtracting percent turnover in the absence of peptide from percent turnover in the presence of substrate peptide. Percent inhibition and IC50 are calculated using peptide-dependent percent turnover at given inhibitor concentrations. Calculation of IC50 values for each inhibitor is conducted using GraFit software (Erithacus Software Ltd., Surrey UK).
Representative compounds of the invention were analyzed using the HIF-PH assay described above. Table 1 presents enzyme inhibition data for exemplary compounds against HIF-PH2, a representative HIF prolyl hydroxylase. By inhibiting HIF prolyl hydroxylase, compounds of the invention stabilize HIFα, which then combines with HIFβ to form an active transcription factor that increases expression of various genes involved in numerous beneficial cellular processes.

T1 sequence (Q9GZT9 whole entry, species assumed): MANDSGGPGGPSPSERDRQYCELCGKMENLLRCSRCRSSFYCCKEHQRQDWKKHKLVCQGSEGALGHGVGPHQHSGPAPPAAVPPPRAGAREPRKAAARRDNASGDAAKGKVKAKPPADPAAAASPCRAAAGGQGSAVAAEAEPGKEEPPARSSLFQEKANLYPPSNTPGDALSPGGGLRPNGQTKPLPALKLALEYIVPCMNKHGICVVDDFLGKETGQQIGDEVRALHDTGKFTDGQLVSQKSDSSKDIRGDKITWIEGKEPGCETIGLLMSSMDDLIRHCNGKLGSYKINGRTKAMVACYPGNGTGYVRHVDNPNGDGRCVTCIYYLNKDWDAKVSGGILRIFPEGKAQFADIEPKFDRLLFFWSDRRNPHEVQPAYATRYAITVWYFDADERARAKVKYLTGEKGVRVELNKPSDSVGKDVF

SMILES: COc1ccc(Cn2c(=O)c(C(=O)NCC(=O)O)c(O)c3cccn32)cc1 [Example 12, {[1-(4-Methoxy-benzyl)-4-hydroxy-2-oxo-1,2-dihydro-pyrrolo[1,2-b]pyridazine-3-carbonyl]-amino}-acetic acid]
inhibition at 200 µM: 100%

SMILES: C[C@H](NC(=O)c1c(O)c2cc3ccc(C(F)(F)F)cc3n2n(Cc2ccc(F)cc2)c1=O)C(=O)O [Example 44, 2-(S)-{[4-(4-Fluoro-benzyl)-1-hydroxy-3-oxo-6-trifluoromethyl-3,4-dihydro-4,4a-diaza-fluorene-2-carbonyl]-amino}-propionic acid]
inhibition at 67 µM: 89%

SMILES: CC[C@H](NC(=O)c1c(O)c2cc(Cl)cn2n(Cc2ccc(F)cc2)c1=O)C(=O)O [Example 34, 2-(S)-{[6-Chloro-1-(4-fluoro-benzyl)-4-hydroxy-2-oxo-1,2-dihydro-pyrrolo[1,2-b]pyridazine-3-carbonyl]-amino}-butyric acid]
inhibition at 67 µM: 86%

SMILES: O=C(O)CNC(=O)c1c(O)c2cc(Cl)cn2n(Cc2ccccn2)c1=O [Example 40, [(6-Chloro-4-hydroxy-2-oxo-1-pyridin-2-ylmethyl-1,2-dihydro-pyrrolo[1,2-b]pyridazine-3-carbonyl)-amino]-acetic acid]
inhibition at 50 µM: 95%

SMILES: O=C(O)CNC(=O)c1c(O)c2cccn2[nH]c1=O [Example 4, [(4-Hydroxy-2-oxo-1,2-dihydro-pyrrolo[1,2-b]pyridazine-3-carbonyl)-amino]-acetic acid]
inhibition at 125 µM: 84%

SMILES: O=C(O)CNC(=O)c1c(O)c2cccn2n(Cc2ccc(Cl)cc2)c1=O [Example 11, {[1-(4-Chloro-benzyl)-4-hydroxy-2-oxo-1,2-dihydro-pyrrolo[1,2-b]pyridazine-3-carbonyl]-amino}-acetic acid]
inhibition at 200 µM: 100%

SMILES: O=C(O)CNC(=O)c1c(O)c2cccn2n(Cc2ccc(F)cc2)c1=O [Example 3, {[1-(4-Fluoro-benzyl)-4-hydroxy-2-oxo-1,2-dihydro-pyrrolo[1,2-b]pyridazine-3-carbonyl]-amino}-acetic acid]
inhibition at 200 µM: 100%

SMILES: O=C(O)CNC(=O)c1c(O)c2cccn2n(Cc2cccc(Cl)c2)c1=O [Example 8, {[1-(3-Chloro-benzyl)-4-hydroxy-2-oxo-1,2-dihydro-pyrrolo[1,2-b]pyridazine-3-carbonyl]-amino}-acetic acid]
inhibition at 200 µM: 100%

SMILES: O=C(O)CNC(=O)c1c(O)c2cc(Cl)cn2n(Cc2ccc(C(F)(F)F)cc2)c1=O [Example 22, {[6-Chloro-4-hydroxy-2-oxo-1-(4-trifluoromethyl-benzyl)-1,2-dihydro-pyrrolo[1,2-b]pyridazine-3-carbonyl]-amino}-acetic acid]
inhibition at 50 µM: 98%

SMILES: O=C(O)CNC(=O)c1c(O)c2cc3cc(F)ccc3n2n(Cc2ccc(F)cc2)c1=O [Example 21, {[7-Fluoro-4-(4-fluoro-benzyl)-1-hydroxy-3-oxo-3,4-dihydro-4,4a-diaza-fluorene-2-carbonyl]-amino}-acetic acid]
inhibition at 50 µM: 99%

Further lines, results first:

inhibition at 22 µM (Concentration 22 μM): 99%
SMILES: O=C(O)CNC(=O)c1c(O)c2c(Cl)c(Cl)c(Cl)n2n(Cc2ccccc2)c1=O [Example 2, [(1-Benzyl-5,6,7-trichloro-4-hydroxy-2-oxo-1,2-dihydro-pyrrolo[1,2-b]pyridazine-3-carbonyl)-amino]-acetic acid]

inhibition at 67 µM: 100%
SMILES: C[C@H](NC(=O)c1c(O)c2cc(Cl)cn2n(Cc2ccc(-c3ccccc3)cc2)c1=O)C(=O)O [Example 35, 2-(S)-[(1-Biphenyl-4-ylmethyl-6-chloro-4-hydroxy-2-oxo-1,2-dihydro-pyrrolo[1,2-b]pyridazine-3-carbonyl)-amino]-propionic acid]

inhibition at 200 µM: 100%
SMILES: O=C(O)CNC(=O)c1c(O)c2cccn2n(Cc2ccc(C(F)(F)F)cc2)c1=O [Example 10, {[1-(4-Trifluoromethyl-benzyl)-4-hydroxy-2-oxo-1,2-dihydro-pyrrolo[1,2-b]pyridazine-3-carbonyl]-amino}-acetic acid]

inhibition at 125 µM: 98%
SMILES: O=C(O)CNC(=O)c1c(O)c2cccn2n(Cc2cccc(F)c2)c1=O [Example 14, {[1-(3-Fluoro-benzyl)-4-hydroxy-2-oxo-1,2-dihydro-pyrrolo[1,2-b]pyridazine-3-carbonyl]-amino}-acetic acid]

inhibition at 50 µM: 91%
SMILES: C[C@H](NC(=O)c1c(O)c2cc(Cl)cn2n(Cc2ccccn2)c1=O)C(=O)O [Example 41, 2-(S)-[(6-Chloro-4-hydroxy-2-oxo-1-pyridin-2-ylmethyl-1,2-dihydro-pyrrolo[1,2-b]pyridazine-3-carbonyl)-amino]-propionic acid]

From patent US8217043B2, “Compounds and methods for their use” (Fibrogen, Inc., priority 2008, dated 2012)
